In experiment [1] the target is T1, Opioid receptor (Rattus norvegicus, UniProt P33533+P34975+P33535). Kind of experiment: Displacement of [3H]-naloxone from rat opioid receptor after 30 mins by liquid scintillation counting analysis in absence of NaCl. In kind it is protein assay. Background: Displacement assays read how much labelled ligand stays bound in the presence of the test substance.
Experiment [2] addresses T1, Opioid receptor. The experiment in a line: Displacement of [3H]-naloxone from rat opioid receptor after 30 mins by liquid scintillation counting analysis in presence of NaCl. In kind it is protein assay.
The species named for experiment [3] is Mus musculus. The experiment in a line: Analgesic activity in Swiss-Webster mouse measured for 20 mins by tail flick test. In kind it is functional. In general terms: In hot-plate and tail-flick tests a longer latency is read as antinociception.
The species entered for experiment [4] is Mus musculus. The experiment in a line: Analgesic activity in Swiss-Webster mouse assessed as reduction of […]-induced writhing. The format is functional. (In general: In writhing tests, fewer writhes than in controls are read as antinociception.)
Experiment [5] has as its system Mus musculus. The experiment in a line: In vivo inhibition of morphine-induced straub-tail response in sc dosed Swiss-Webster mouse measured for 30 mins. The format is functional. The conditions noted are these: for ED50: 0.5 h.

The source of these data is ChEMBL document CHEMBL3272183, “Analgesics. 1. Synthesis and analgesic properties of N-sec-alkyl- and N-tert-alkylnormorphines” (J Med Chem, 1978).

Calls of active or inactive are those of the source. The rule behind the calls is not given here.

As usually defined, the IC50 is the point on the concentration scale where inhibition reaches its midpoint. In general, ED50 refers to the dose that gives a 50% effect, or the effect in half of the subjects.

As to `CC(C)(Cc1ccccc1)N1CC[C@]23c4c5ccc(O)c4O[C@H]2[C@@H](O)C=C[C@H]3[C@H]1C5`, the IC50 in experiment [1] and in experiment [2] was 1000 nM in each case. The ED50 is above 310 µmol/kg in experiment [3] and above 176 µmol/kg in experiment [4].
Turning to `Oc1ccc2c3c1O[C@H]1[C@@H](O)C=C[C@H]4[C@@H](C2)N(C2CCCC2)CC[C@@]341`, the values for the IC50 in experiment [1] and in experiment [2] were 34 nM and 45 nM, respectively. The results for the ED50 in experiment [3], in experiment [4] and in experiment [5] were 124 µmol/kg, 15.5 µmol/kg and 15.5 µmol/kg, respectively.
On to `C=CC(C)(C)N1CC[C@]23c4c5ccc(O)c4O[C@H]2[C@@H](O)C=C[C@H]3[C@H]1C5`, for which the IC50 in experiment [1] and in experiment [2] was above 1000 nM each time. Also, the ED50 in experiment [3] is above 295 µmol/kg; in experiment [4], 74 µmol/kg.
As to `CC[C@@H](C)N1CC[C@]23c4c5ccc(O)c4O[C@H]2[C@@H](O)C=C[C@H]3[C@H]1C5`, the values for the IC50 in experiment [1] and in experiment [2] were 60 nM and 110 nM, respectively.
As for `Oc1ccc2c3c1O[C@H]1[C@@H](O)C=C[C@H]4[C@@H](C2)N(C2C=CCCC2)CC[C@@]341` (some centres not stated), the IC50 in experiment [1] is on record as 51 nM; in experiment [2] it was 130 nM. In addition, the values for the median effective dose (ED50) in experiment [3] and in experiment [5] were 79.7 µmol/kg and 23.8 µmol/kg, respectively.
Turning to `CN1CC[C@]23c4c5ccc(O)c4O[C@H]2[C@@H](O)C=C[C@H]3[C@H]1C5` [MORPHINE], the ED50 amounted to 10.5 µmol/kg in experiment [3] and 1.5 µmol/kg in experiment [4]. Moreover, in experiment [5], the inhibition entry is “inactive”.
Take `CC(Cc1ccccc1)N1CC[C@]23c4c5ccc(O)c4O[C@H]2[C@@H](O)C=C[C@H]3[C@H]1C5` (some centres not stated): the values for the IC50 in experiment [1] and in experiment [2] were 3.4 nM and 125 nM, respectively. Besides, the values for the ED50 in experiment [3] and in experiment [4] were 4.3 µmol/kg and 0.13 µmol/kg, respectively. Further, the inhibition entry in experiment [5] is “inactive”.
For `C=C[C@@H](C)N1CC[C@]23c4c5ccc(O)c4O[C@H]2[C@@H](O)C=C[C@H]3[C@H]1C5`, the 50% inhibitory concentration (IC50) stood at 27 nM in experiment [1] and 80 nM in experiment [2].
Regarding `CC[C@H](C)N1CC[C@]23c4c5ccc(O)c4O[C@H]2[C@@H](O)C=C[C@H]3[C@H]1C5`, the IC50 stood at 28 nM in experiment [1] and 62 nM in experiment [2].
As for `Oc1ccc2c3c1O[C@H]1[C@@H](O)C=C[C@H]4[C@@H](C2)N(C2CCCCC2)CC[C@@]341`, the IC50 in experiment [1] came to 38 nM; in experiment [2], 92 nM. For the same molecule, the ED50 was above 212 µmol/kg in experiment [3] and 15.7 µmol/kg in experiment [4].
Consider `CCCC(C)N1CC[C@]23c4c5ccc(O)c4O[C@H]2[C@@H](O)C=C[C@H]3[C@H]1C5` (some centres not stated), for which the half-inhibitory concentration (IC50) is 37 nM in experiment [1] and 340 nM in experiment [2]. Besides, the results for the ED50 in experiment [3], in experiment [4] and in experiment [5] were above 439 µmol/kg, 9 µmol/kg and 80.8 µmol/kg, respectively.
As for `Oc1ccc2c3c1O[C@H]1[C@@H](O)C=C[C@H]4[C@@H](C2)N(CCc2ccccc2)CC[C@@]341`, the IC50 in experiment [1] was 4.2 nM; in experiment [2], 133 nM. The ED50 came out at 1.7 µmol/kg in experiment [3] and 0.27 µmol/kg in experiment [4]. Besides, the inhibition result in experiment [5] is “inactive”.
Take `C=CCN1CC[C@]23c4c5ccc(O)c4O[C@H]2[C@@H](O)C=C[C@H]3[C@H]1C5` [NALORPHINE]: the values for the half-inhibitory concentration (IC50) in experiment [1] and in experiment [2] were 2 nM and 6 nM, respectively. Also, the ED50 in experiment [4] is 3.2 µmol/kg.
Turning to `CCCN1CC[C@]23c4c5ccc(O)c4O[C@H]2[C@@H](O)C=C[C@H]3[C@H]1C5`, the IC50 in experiment [1] and in experiment [2] was 14 nM in each case. For the same molecule, the ED50 was found to be 51 µmol/kg in experiment [3], 29 µmol/kg in experiment [4] and 0.6 µmol/kg in experiment [5].
As to `C=C[C@H](C)N1CC[C@]23c4c5ccc(O)c4O[C@H]2[C@@H](O)C=C[C@H]3[C@H]1C5`, the IC50 in experiment [1] is given as 16 nM; in experiment [2], 25 nM. Moreover, the ED50 in experiment [3] was determined as 105 µmol/kg.
Turning to `Oc1ccc2c3c1O[C@H]1[C@@H](O)C=C[C@H]4[C@@H](C2)N(C2CCCCCC2)CC[C@@]341`, the IC50 in experiment [1] stood at 19 nM; in experiment [2], 150 nM. Further, the ED50 in experiment [3] is above 136 µmol/kg; in experiment [4], 9.9 µmol/kg; in experiment [5] it was 60.8 µmol/kg.
For `CCC(CC)N1CC[C@]23c4c5ccc(O)c4O[C@H]2[C@@H](O)C=C[C@H]3[C@H]1C5`, the IC50 in experiment [1] was 78 nM; in experiment [2], 175 nM.
As to `CCC(C)(C)N1CC[C@]23c4c5ccc(O)c4O[C@H]2[C@@H](O)C=C[C@H]3[C@H]1C5`, the IC50 in experiment [1] and in experiment [2] was 1000 nM throughout. For the same molecule, the ED50 in experiment [3] is above 580 µmol/kg; in experiment [4] it was above 290 µmol/kg.
